# Laboratory results from patent publication US6630338B2, “Removing deacetylase contaminant from cephalosporin C acylase using cationic surfactant” (Fujisawa Pharmaceutical Co., Ltd., priority 1996, dated 2003).
# How the values were obtained:
# [1] = test system: CC acylase; experiment: Residual CC acylase activity after addition of surfactant (7-ACA produced from GL7-ACA); format: biochemical, Pseudomonas; details: for residual activity (CC acylase): room temperature 16 hours, relative to activity before addition as 100
# Experimental: (§1) Mutant CC acylase N-176 producing E. coli JM 109 (PCCN 176-2) FERM BP-3047 was cultured according to the method disclosed in Example 3 of Japanese Patent Unexamined Publication No. 584078 and the cells were harvested by centrifugation. The obtained cell pellets were disrupted with a homogenizer and soluble protein component was extracted with water, which was followed by centrifugation to remove debris, whereby a crude extract solution was obtained.
# (§2) Polyethyleneimine was added to the crude extract solution obtained in the above-mentioned (1) to allow precipitation of the nucleic acid, which was followed by centrifugation to recover supernatant. This supernatant was applied to DEAE column equilibrated with phosphate buffer (pH 7.0), washed with water and eluted with 0.2M-NaCl. […] The activities of CC acylase and deacetylase in each sample before and after the addition of the surfactant were measured and the changes thereof were examined. The enzyme activity was calculated by quantitatively determining 7-ACA and deacetyl 7-ACA produced from GL7-ACA as a substrate.
# [2] = test system: deacetylase; experiment: Residual contaminant deacetylase activity after addition of surfactant (deacetyl 7-ACA produced from GL7-ACA); format: biochemical; details: for residual activity (deacetylase): room temperature 16 hours, relative to activity before addition as 100
# Experimental: as §1, §2
# [3] = surfactant addition concentration 0.1%
# [4] = surfactant addition concentration 0.3%
# [5] = surfactant addition concentration 0.5%
# [6] = surfactant concentration 0.1-0.3%
Molecule,"residual activity (CC acylase) [1, 3]","residual activity (CC acylase) [1, 4]","residual activity (CC acylase) [1, 5]","residual activity (deacetylase) [2, 3]","residual activity (deacetylase) [2, 4]","residual activity (deacetylase) [2, 5]","CC acylase residual activity [1, 6]","activity of contaminant deacetylase [2, 6]",removal of deacetylase ([2]; surfactant concentration 0.5%)
"CCCCCCCCCCCC[N+](C)(C)C.[Cl-] [Cation BB, dodecyltrimethyl ammonium chloride]",100,100,85,55,45,5,–,–,–
alkyl glycine [Nissan Anon LG],100,100,95,60,50,30,–,–,–
alkyl(palm)dimethylbenzyl ammonium chloride [Cation F2-50],95,92,70,5,1,0,≥ 90%,not more than 5%,removed nearly completely
alkyl(palm)trimethyl ammonium chloride [Cation FB],100,100,80,55,40,1,–,–,–
polyoxyethylene octylphenyl ether [Nonion HS-210],100,100,100,50,50,45,–,–,–
polyoxyethylenesorbitan monooleate [Nonion TO-221],100,100,100,50,50,45,–,–,–
